Data on four molecules can be found in US9365830B2, “Agents and methods for inhibiting human pluripotent stem cell growth” (VIACYTE, INC., priority 2010, dated 2016).

Like-named read-outs stand apart in the source and are kept apart here.

What all share (assay type): cell-based, human
The test system of assay [1] is hESC suspension aggregate cultures, Stages 1-4 (pancreatic endoderm). The assay can be described thus: Q-PCR marker gene expression, suspension aggregate cultures differentiated through Stages 1-4. The note with it: for PDX1 and NKX6.1 gene expression: Stages 2, 3 and 4, compared to the Controls. From the text: FIGS. 5A-5M. are bar graphs showing the relative gene expression levels of markers expressed in pluripotent cells or in cells of pancreatic lineage: OCT4 (FIG. 5A), MIXL (FIG. 5B), EOMES (FIG. 5C), CXCR4 (FIG. 5D), SOX17 (FIG. 5E), HNF1B (FIG. 5F), HNF4A (FIG. 5G), PDX1 (FIG. 5H), PTF1A (FIG. 5I), NKX2.2. (FIG. 5J), NGN3 (FIG. 5K), NKX6.1 (FIG. 5L) and PAX4 (FIG. 5M) with treatment of candidate selective cytotoxic agents from the LOPAC1280™ sublibrary (Table 4) to suspension aggregate cell cultures at Stages 1-4. Expression levels are normalized to the average expression levels of housekeeping genes. The graphs depict fold regulation compared to hESC sample. Ch.Cl=chelerythrine chloride; Deph.=dephostatin; AG=AG 490; SU=SU6656.
FIGS. 6A-6F are bar graphs showing the relative gene expression levels of markers of non-pancreatic lineage cells: SOX1 (FIG. 6A; e.g., at least observed in extraembryonic and neural cellss), ZIC1 (FIG. 6B; e.g., at least observed in early neural cells), PAX6 (FIG. 6C; e.g., at least observed in neural ectoderm cells), SOX7 (FIG. 6D; e.g., at least observed in extraembryonic cells), AFP (FIG. 6E; e.g., at least observed in liver cell and extraembryonic cells) and CDX2 (FIG. 6F; e.g., at least observed in extraembryonic cells) in compound-treated differentiations.
Effects of Candidate Inhibitor/Cytotoxic Agents in Suspension Aggregate Culture. The ideal inhibitor candidate for cell therapy would be compatible with pancreatic cell lineage viability in a manufacturing scale-up process (e.g. a suspension aggregate culture that could be propagated in a large bioreactor), as well as in small-scale cell culture, such as in 96-well plates or 6-well trays. Thus, an additional screen included conditions similar to those in a commercial-scale process. […] The remaining 4 compounds, chelerythrine chloride (Ch.Cl; Cmpd. No. 25), tyrphostin AG 490 (AG; Cmpd. No. 152), dephostatin (Deph; Cmpd. No. 48), and SU 6656 (SU; Cmpd. No. 126) were screened for selective inhibition of pluripotent stem cell growth in a suspension aggregate type culture, which is amenable to manufacturing scale-up process. Briefly, Human ESCs were aggregated in rotational culture and differentiated through Stages 1-4 to make pancreatic endoderm substantially as described in U.S. patent application Ser. No. 11/838,054, entitled COMPOSITIONS AND METHODS USEFUL FOR CULTURING DIFFERENTIABLE CELLS, filed Aug. 13, 2007; and U.S. patent application Ser. No. 12/264,760, entitled STEM CELL AGGREGATE SUSPENSION COMPOSITIONS AND METHODS OF DIFFERENTIATION THEREOF, filed Nov. 4, 2008, which are herein incorporated by reference in their entirety. RNA samples were collected from control and compound-treated cell cultures at various time points during the differentiation as above, for analysis by Q-PCR. FIGS. 5A-5M show the expression of markers characteristic of pluripotent stem cells or at least one of Stages 1-5. FIGS. 6A-6F show the expression of markers not normally expressed in pluripotent stem cells or Stages 1-5. Each graph includes 5 sections: QPCR samples were normalized to day 0 (hESC), which is the “Control” section farthest left on each graph of FIGS. 5A-5M; the other four sections to the right of the Control section correspond to the four compounds used to treat the cells (chelerythrine chloride (Ch.Cl; Cmpd. No. 25); tyrphostin AG 490 (AG490; Cmpd. No. 152), dephostatin (Deph; Cmpd. No. 48), and SU 6656 (SU6656; Cmpd. No. 126) left to right, respectively).

The subject of assay [2] is hESCs. The assay is described as follows: Secondary screen, lowest effective dose on hESCs. The conditions noted are these: lowest concentration that elicited cytotoxicity, range 0.1 to 50 μM, read-out: ED hESC (lowest effective dose). Here is the method:
To expand the number of potential candidate hESC cytotoxic and inhibitory compounds, the complete LOPAC1280™ collection (containing 1,280 compounds) was screened. In the primary screen, cytotoxicity was tested on undifferentiated hESCs (about 3×10^4 BG01 cells) in 16 standard 96-well trays, in DC-HAIF defined medium on growth factor-reduced MATRIGEL™ diluted 1:200, which were fed daily (FIG. 7A). 10 μM of each compound was added to the hESCs one day after plating, and the cells were cultured for an additional 2 days. Plates were then fixed and stained for alkaline phosphatase (AP) to identify relative decreases in proliferation or growth of hESCs (as reduced AP staining), indicative of lower proportions of hESCs. See the circled wells in FIG. 7A.
(§1) Using a range of different concentrations from 0.1 to 50 μM, the forty compounds in Table 6 were re-screened (secondary screen) using hESCS and NPCs. The effective dose (ED) was defined as the lowest concentration of a compound that elicited cytotoxicity during the secondary screen. […] The darker wells were indicative of the increased numbers or percentages of proliferating or growing pluripotent stem cells in the wells. In addition, these 40 compounds were screened on differentiating definitive endoderm (DE) cell cultures in 96-well plate impedance assays (described above) to determine which of these compounds were not cytotoxic to definitive endoderm cells at the lowest effective dose on either hESC or NPC. […] See “ACEA DE” column in Table 6.

Assay [3] relates to differentiating definitive endoderm (DE) cell cultures. The assay is described as follows: 96-well plate impedance assay (ACEA) on differentiating definitive endoderm at lowest effective dose. On the set-up: key: Viable: Compounds that did not appear to be cytotoxic toward differentiating DE cultures were marked as “viable”, meaning that the compound did not affect the survival, growth, proliferation or differentiation of the differentiated cells. The conditions noted are these: at the lowest effective dose on either hESC or NPC.
Source text: The impedance assay on the hESCs using the compounds in Table 4 above gave greater than twenty (20) hits. However, the ideal candidate compound of the present invention should not only be inhibitory or cytotoxic to human pluripotent stem cells, such as hESCs or hIPSCs, but should at the same time have no effect on cell viability of differentiated or differentiating cell populations including Stage 1, 2, 3, 4 and 5 type cells cultures (definitive endoderm, foregut endoderm, posterior foregut, pancreatic endoderm and endocrine cells, respectively). […] Approximately 3×10^4 hES cells were plated per well and grown for 24 hrs in DC-HAIF defined medium (i.e. StemPro® hESC SFM medium (Life Technologies, Carlsbad, Calif.). Stage 1 or definitive endoderm differentiation was then induced by changing the medium and culturing in RPMI, 100 ng/mL Activin A, and 10 ng/mL of FGF2. […] of GSK-3 beta Inhibitor 15 (Calbiochem #361558) as added to the culture for the first 24 hours of differentiation only. 10 μM of each of the candidate compounds were added about 48 hours or 2 days after differentiation was induced (see FIGS. 3 C & D, large arrowhead), and the cells were cultured for an additional 2 days.
as §1

Regarding `N#C/C(=C\c1ccc(O)c(O)c1)C(=O)NCc1ccccc1` [Tyrphostin AG 490], the “AFP gene expression (non-pancreatic marker)” value in assay [1] (FIG. 6E) was “elevated”. In assay [1], the “PDX1 and NKX6.1 gene expression” value was “reduced”. Further, in assay [2], the minimal effective concentration was 25 µM. Also, in assay [3], the “ACEA DE” value was “Viable”.
Take `CN(N=O)c1cc(O)ccc1O` [Dephostatin]: the “differentiation of non-pancreatic lineage cells, or “off-target” cells” value in assay [1] (FIGS. 6A-6F) is listed as “do not promote”. Also, the “PDX1 and NKX6.1 gene expression” value in assay [1] is listed as “increased”.
On to `CN(C)S(=O)(=O)c1ccc2c(c1)/C(=C/c1cc3c([nH]1)CCCC3)C(=O)N2` [SU 6656], for which the “CDX2 gene expression (non-pancreatic marker)” value in assay [1] (FIG. 6F) was “elevated”. Also, the “PDX1 and NKX6.1 gene expression” value in assay [1] is “increased”. Also, the minimal effective concentration in assay [2] (Homo sapiens) came to 25 µM. In addition, the “ACEA DE” value in assay [3] is listed as “Viable”.
For the molecule “22, 23-dihydroavermectin B1a+22,23-dihydroavermectin B1b [Ivermectin]”, the minimal effective concentration in assay [2] was 5 µM. In addition, the “ACEA DE” value in assay [3] is reported as “Viable”.
